# Patent publication US11007141B2, “Oral preparation and preparation method thereof” (GUANGZHOU XIANGXUE PHARMACEUTICAL CO., LTD., priority 2015, dated 2021)
# Where two headings read alike, the source gives them in different places.
# Tests used:
# [1] = for Water (water-addition-precipitating critical point of drug solution): 100 mg drug; for dissolution in aqueous solution containing surfactant: magnetic stirring 1 hour
# Protocol: In this study, a dissolution test was performed using a single non-aqueous solvent ethanol.
# In this study, a dissolution test was also performed using composite solvents composed of PEG400 or PEG200 and absolute ethanol, respectively.
# In addition, in this study, dissolution tests were also performed using a single non-aqueous solvent propylene glycol, or a composite solvent composed of propylene glycol and other non-aqueous solvent.
# Next, the dilution stability of these two solvent systems was tested.
# [2] = API 0.5 mg/ml, 20% γ-CD, molar ratio 174:1
# Protocol: (§1) Different kinds of cyclodextrins were dissolved with an aqueous hydrochloric acid solution (0.1N) having a pH value of 1.2 to determine the saturation concentration of each cyclodextrin.
# A certain amount of API was weighed and added into an appropriate volume of the cyclodextrin solution. […] The clear solution after the pH adjustment was left to stand to observe the state of the solution after standing for 2 hours, 4 hours, and 24 hours.
# [3] = Tablet stability at high temperature (60° C.), high humidity (92.5% RH), −20° C.; assay type: physicochemical
# [4] = Concentration of drug-containing HP-β-CD preparation after filtration (HPLC); conditions: 21 mg/ml drug-containing preparation in 30% HP-β-CD, pH 1.2; API not completely dissolved after 30 minutes ultrasound; 0.45 μm PES filter
# [5] = Maximum solubility of cyclodextrins in hydrochloric acid solution pH 1.2
# Protocol: as §1
# (1) A certain amount of α-, β- and γ-cyclodextrin were weighed and added into a 10 mL volumetric flask, then an aqueous hydrochloric acid solution of pH 1.2 was gradually added until reaching the scale of the flask, and the flask was shocked and ultrasound was performed to dissolve the cyclodextrin. The maximum amount of cyclodextrin capable of being dissolved in a 10 mL solution was recorded.
compound,measurement,setting,value
O=C(Cc1ccc(-c2ccc(N3CCOCC3)cc2)cn1)NCc1cccc(F)c1.O=S(=O)(O)c1ccccc1 [KX2-361.benzene sulfonate],Water (water-addition-precipitating critical point of drug solution),"[1]; Cremophor EL 17.1 g, 40° C.",6.7 g
same,Water (water-addition-precipitating critical point of drug solution),"[1]; Solutolo HS-15 10 g, 40° C.",4.5 g
same,Water (water-addition-precipitating critical point of drug solution),"[1]; Solutolo HS-15 15 g, 28° C.",8.7 g
same,Water (water-addition-precipitating critical point of drug solution),"[1]; Solutolo HS-15 20 g, 28° C.",12.6 g
same,dissolution in aqueous solution containing surfactant,[1]; drug containing 10 mg of KX2-361 in 0.6% Poloxamer 188 aqueous solution (50 ml),failed to completely dissolve
same,dissolution in aqueous solution containing surfactant,[1]; drug containing 10 mg of KX2-361 in 2% Tween80 aqueous solution (50 ml),failed to completely dissolve
same,dissolution in aqueous solution containing surfactant,[1]; drug containing 10 mg of KX2-361 in 8% Solutol HS15 aqueous solution (50 ml),failed to completely dissolve
same,dissolution in aqueous solution containing surfactant,[1]; drug containing 10 mg of KX2-361 in 10% Cremophor EL aqueous solution (50 ml),failed to completely dissolve
same,dissolution in propylene glycol,"[1]; drug containing 50 mg of KX2-361 in 20 ml of propylene glycol alone, a trace of small particles still present",could substantially be dissolved
same,solubility in ethanol,[1]; ethanol (95% v/v),1.12 to 2.38 mg/mL
same,Solution phenomenon when the pH value was adjusted to 4,[2],turbid
same,Total impurity (%),[3]; 0 day,0.33%
same,Total impurity (%),"[3]; High humidity, 20 days",0.31%
same,Total impurity (%),"[3]; High temperature, 10 days",0.32%
same,Total impurity (%),"[3]; High temperature, 20 days",0.32%
same,Total impurity (%),"[3]; −20° C., 20 days",0.36%
same,"concentration after filtration, calibrated with HPLC",[4],20660 µg/mL
OC[C@H]1O[C@@H]2O[C@H]3[C@H](O)[C@@H](O)[C@@H](O[C@H]4[C@H](O)[C@@H](O)[C@@H](O[C@H]5[C@H](O)[C@@H](O)[C@@H](O[C@H]6[C@H](O)[C@@H](O)[C@@H](O[C@H]7[C@H](O)[C@@H](O)[C@@H](O[C@H]1[C@H](O)[C@H]2O)O[C@@H]7CO)O[C@@H]6CO)O[C@@H]5CO)O[C@@H]4CO)O[C@@H]3CO [α-cyclodextrin],maximum solubility,[5]; aqueous hydrochloric acid solution of a pH value of 1.2,about 8%
OC[C@H]1O[C@@H]2O[C@H]3[C@H](O)[C@@H](O)[C@@H](O[C@H]4[C@H](O)[C@@H](O)[C@@H](O[C@H]5[C@H](O)[C@@H](O)[C@@H](O[C@H]6[C@H](O)[C@@H](O)[C@@H](O[C@H]7[C@H](O)[C@@H](O)[C@@H](O[C@H]8[C@H](O)[C@@H](O)[C@@H](O[C@H]1[C@H](O)[C@H]2O)O[C@@H]8CO)O[C@@H]7CO)O[C@@H]6CO)O[C@@H]5CO)O[C@@H]4CO)O[C@@H]3CO [β-cyclodextrin],maximum solubility,[5],about 1%
OC[C@H]1O[C@@H]2O[C@H]3[C@H](O)[C@@H](O)[C@@H](O[C@H]4[C@H](O)[C@@H](O)[C@@H](O[C@H]5[C@H](O)[C@@H](O)[C@@H](O[C@H]6[C@H](O)[C@@H](O)[C@@H](O[C@H]7[C@H](O)[C@@H](O)[C@@H](O[C@H]8[C@H](O)[C@@H](O)[C@@H](O[C@H]9[C@H](O)[C@@H](O)[C@@H](O[C@H]1[C@H](O)[C@H]2O)O[C@@H]9CO)O[C@@H]8CO)O[C@@H]7CO)O[C@@H]6CO)O[C@@H]5CO)O[C@@H]4CO)O[C@@H]3CO [γ-cyclodextrin],maximum solubility,[5],about 20%
